Test results as given in ChEMBL document CHEMBL1201862, “PubChem BioAssay data set” (2004).
Calls of active or inactive are those of the source.

Columns and labels:
[1] = molecular target: T1, Histone-lysine N-methyltransferase NSD2 (Homo sapiens, UniProt O96028); format: biochemical
T1 sequence (O96028 whole entry): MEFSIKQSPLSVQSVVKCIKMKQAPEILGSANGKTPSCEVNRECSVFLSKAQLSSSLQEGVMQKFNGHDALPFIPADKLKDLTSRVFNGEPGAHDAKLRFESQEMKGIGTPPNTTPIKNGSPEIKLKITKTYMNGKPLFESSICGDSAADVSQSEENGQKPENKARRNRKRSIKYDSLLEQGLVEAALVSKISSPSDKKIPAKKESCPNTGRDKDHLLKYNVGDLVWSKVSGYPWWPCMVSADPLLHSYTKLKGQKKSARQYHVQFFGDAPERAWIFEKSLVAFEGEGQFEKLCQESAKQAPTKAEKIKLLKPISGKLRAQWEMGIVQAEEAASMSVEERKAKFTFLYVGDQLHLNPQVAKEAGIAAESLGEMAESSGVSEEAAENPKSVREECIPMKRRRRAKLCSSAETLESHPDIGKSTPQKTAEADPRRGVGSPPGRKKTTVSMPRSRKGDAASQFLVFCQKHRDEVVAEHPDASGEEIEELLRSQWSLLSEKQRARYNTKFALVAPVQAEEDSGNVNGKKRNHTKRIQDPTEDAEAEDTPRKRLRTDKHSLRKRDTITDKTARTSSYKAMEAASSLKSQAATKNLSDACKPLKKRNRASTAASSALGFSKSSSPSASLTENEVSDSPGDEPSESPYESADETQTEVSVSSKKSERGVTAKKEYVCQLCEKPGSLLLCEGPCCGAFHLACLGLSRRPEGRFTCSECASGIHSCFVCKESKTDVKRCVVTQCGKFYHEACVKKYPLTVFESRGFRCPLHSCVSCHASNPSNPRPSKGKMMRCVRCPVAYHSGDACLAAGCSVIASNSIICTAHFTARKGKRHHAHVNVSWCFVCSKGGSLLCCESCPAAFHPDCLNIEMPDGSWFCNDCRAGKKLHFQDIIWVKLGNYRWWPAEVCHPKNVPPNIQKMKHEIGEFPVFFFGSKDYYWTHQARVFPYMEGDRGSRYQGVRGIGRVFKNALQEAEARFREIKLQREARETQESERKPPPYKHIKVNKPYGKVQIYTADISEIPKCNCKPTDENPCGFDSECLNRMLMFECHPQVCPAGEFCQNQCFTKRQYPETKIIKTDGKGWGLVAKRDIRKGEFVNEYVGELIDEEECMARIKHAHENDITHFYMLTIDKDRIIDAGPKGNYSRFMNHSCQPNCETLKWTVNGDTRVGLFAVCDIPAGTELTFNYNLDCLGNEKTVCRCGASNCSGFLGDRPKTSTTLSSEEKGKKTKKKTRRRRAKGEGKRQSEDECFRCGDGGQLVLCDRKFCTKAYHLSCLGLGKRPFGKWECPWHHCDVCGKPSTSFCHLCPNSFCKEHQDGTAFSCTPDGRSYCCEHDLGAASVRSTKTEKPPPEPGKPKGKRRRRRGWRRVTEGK

[2] = molecular target: Genome polyprotein (dengue virus type 2, UniProt P29990); assay: flavivirus cap methylation enzyme inhibition – biochemical, confirmation dose response, primary screen (AID 588689); format: functional
[3] = molecular target: T2, Apoptotic protease-activating factor 1 (Homo sapiens, UniProt O14727); format: functional
T2 sequence (O14727 whole entry): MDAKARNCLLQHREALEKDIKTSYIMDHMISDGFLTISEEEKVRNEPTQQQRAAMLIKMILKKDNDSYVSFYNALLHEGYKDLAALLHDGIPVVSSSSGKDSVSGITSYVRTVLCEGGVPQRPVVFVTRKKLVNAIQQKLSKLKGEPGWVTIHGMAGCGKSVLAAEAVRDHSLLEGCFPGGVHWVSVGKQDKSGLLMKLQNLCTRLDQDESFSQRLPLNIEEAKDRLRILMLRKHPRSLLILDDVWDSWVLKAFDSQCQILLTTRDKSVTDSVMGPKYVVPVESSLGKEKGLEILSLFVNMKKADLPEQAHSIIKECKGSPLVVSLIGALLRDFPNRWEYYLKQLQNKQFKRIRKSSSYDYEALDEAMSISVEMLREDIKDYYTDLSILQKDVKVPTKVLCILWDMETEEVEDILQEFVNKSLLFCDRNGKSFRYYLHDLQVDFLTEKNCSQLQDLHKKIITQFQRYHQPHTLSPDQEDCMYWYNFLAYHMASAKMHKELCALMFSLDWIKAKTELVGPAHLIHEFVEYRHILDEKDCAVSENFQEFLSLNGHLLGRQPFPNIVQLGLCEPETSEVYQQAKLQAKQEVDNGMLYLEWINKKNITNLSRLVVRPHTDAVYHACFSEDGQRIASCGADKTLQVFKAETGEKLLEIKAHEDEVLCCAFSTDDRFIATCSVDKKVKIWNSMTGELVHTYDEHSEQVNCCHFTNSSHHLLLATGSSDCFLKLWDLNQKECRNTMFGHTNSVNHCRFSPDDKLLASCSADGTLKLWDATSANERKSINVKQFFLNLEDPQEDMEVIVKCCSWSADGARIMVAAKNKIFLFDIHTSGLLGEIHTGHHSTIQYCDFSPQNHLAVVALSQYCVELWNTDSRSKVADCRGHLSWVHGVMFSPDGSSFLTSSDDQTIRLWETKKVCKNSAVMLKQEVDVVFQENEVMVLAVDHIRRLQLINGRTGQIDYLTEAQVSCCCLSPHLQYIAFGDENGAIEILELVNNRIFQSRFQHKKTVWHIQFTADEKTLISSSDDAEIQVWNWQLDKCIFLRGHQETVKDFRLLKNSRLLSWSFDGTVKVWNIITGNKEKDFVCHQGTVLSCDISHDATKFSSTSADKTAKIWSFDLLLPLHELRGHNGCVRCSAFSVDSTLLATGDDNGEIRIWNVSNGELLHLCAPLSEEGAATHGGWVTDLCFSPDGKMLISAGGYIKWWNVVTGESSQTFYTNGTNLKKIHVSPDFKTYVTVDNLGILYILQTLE

Genome polyprotein, sequence (P29990 2492-3391 limits assumed): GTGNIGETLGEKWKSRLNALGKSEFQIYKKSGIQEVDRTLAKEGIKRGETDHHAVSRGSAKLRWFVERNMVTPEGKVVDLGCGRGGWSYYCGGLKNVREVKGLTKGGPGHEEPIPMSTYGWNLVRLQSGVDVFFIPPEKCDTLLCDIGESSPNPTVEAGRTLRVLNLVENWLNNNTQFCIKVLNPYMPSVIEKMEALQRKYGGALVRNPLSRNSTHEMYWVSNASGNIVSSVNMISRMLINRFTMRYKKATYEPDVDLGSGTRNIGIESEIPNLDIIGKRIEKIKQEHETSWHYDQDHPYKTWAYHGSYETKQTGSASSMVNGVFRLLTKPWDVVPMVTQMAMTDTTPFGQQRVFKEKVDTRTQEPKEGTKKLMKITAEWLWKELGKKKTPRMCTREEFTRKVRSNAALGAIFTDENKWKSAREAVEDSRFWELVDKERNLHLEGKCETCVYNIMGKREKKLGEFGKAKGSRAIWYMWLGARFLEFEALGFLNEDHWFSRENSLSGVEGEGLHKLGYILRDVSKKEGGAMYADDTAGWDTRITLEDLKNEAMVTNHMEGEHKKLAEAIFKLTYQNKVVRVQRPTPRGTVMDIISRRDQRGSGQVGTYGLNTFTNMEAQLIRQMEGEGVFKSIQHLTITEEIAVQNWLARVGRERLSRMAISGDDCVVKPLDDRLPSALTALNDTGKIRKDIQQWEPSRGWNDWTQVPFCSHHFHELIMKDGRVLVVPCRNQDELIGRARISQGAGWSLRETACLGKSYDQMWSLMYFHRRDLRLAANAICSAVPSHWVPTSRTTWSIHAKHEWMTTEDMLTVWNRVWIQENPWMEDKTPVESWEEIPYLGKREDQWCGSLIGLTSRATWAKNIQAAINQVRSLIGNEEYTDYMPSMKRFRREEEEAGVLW

| SMILES | AC50 [1] | IC50 [2] | IC50 [3] |
| --- | --- | --- | --- |
| O=C(CCN1C(=O)/C(=C\c2ccco2)SC1=S)Nc1ccc(C(=O)O)c(O)c1 | 13.8 µM (active) | > 100 µM (active) |  |
| Cc1nc2c(=O)n(C)c(=O)nc-2n(C)n1 |  |  | 0.0375 µM (active) |
| O=C1C=C(c2c(O)ccc3ccccc23)c2ccccc2C1=O | 1.7 µM (active) | 5.91 µM (active) |  |
| Oc1nc(Nc2ccccc2Cl)cc2ccccc12 |  |  | 6.11 µM (active) |
